Laboratory results: PubChem BioAssay (NCI)
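GI50 marks 50% less growth. The concentration for full growth arrest is given as TGI.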

What was measured:
Assay in all cases: growth of human tumour cells (NCI), 384-well format
T-47D breast = tested on: T-47D breast
CAKI-1 renal = tested on: CAKI-1 renal
HL-60(TB) leukemia = tested on: HL-60(TB) leukemia
NCI-H322M lung = tested on: NCI-H322M lung
NCI-H522 lung = tested on: NCI-H522 lung
NCI-H226 lung = tested on: NCI-H226 lung
SR leukemia = tested on: SR leukemia
MCF7 breast = tested on: MCF7 breast
SF-268 CNS = tested on: SF-268 CNS
MDA-MB-435 melanoma = tested on: MDA-MB-435 melanoma
HOP-92 NSCLC = tested on: HOP-92 NSCLC
HS 578T breast = tested on: HS 578T breast
COLO 205 colon = tested on: COLO 205 colon

For `C[C@H](NC(=O)c1c(N)nn2cccnc12)c1cc2cccc(C#Cc3cnn(C)c3)c2c(=O)n1-c1ccccc1`, the GI50 (T-47D breast) was 0.375 µM, the TGI (T-47D breast) was 2.41 µM and the GI50 (CAKI-1 renal) was 1.28 µM. For the same compound, the TGI (CAKI-1 renal) was 15.7 µM, the GI50 (HL-60(TB) leukemia) was 1.15 µM and the TGI (HL-60(TB) leukemia) was 4.94 µM. The GI50 (NCI-H322M lung) was 9.35 µM, the TGI (NCI-H322M lung) was 23.9 µM and the GI50 (NCI-H522 lung) was 4.55 µM. For the same compound, the TGI (NCI-H522 lung) was 18.7 µM, the GI50 (NCI-H226 lung) was 3.95 µM and the TGI (NCI-H226 lung) was 16.3 µM. For the same compound, the GI50 (SR leukemia) was 4.16 µM, the TGI (SR leukemia) was 16.9 µM and the GI50 (MCF7 breast) was 1.25 µM. It also gave a TGI (MCF7 breast) of 6.84 µM, a GI50 (SF-268 CNS) of 2.02 µM and a TGI (SF-268 CNS) of 9.93 µM. It also gave a GI50 (MDA-MB-435 melanoma) of 10.6 µM, a TGI (MDA-MB-435 melanoma) of 24.1 µM and a GI50 (HOP-92 NSCLC) of 0.47 µM. For the same compound, the TGI (HOP-92 NSCLC) was 4.04 µM, the GI50 (HS 578T breast) was 0.846 µM and the TGI (HS 578T breast) was 6.01 µM. The GI50 (COLO 205 colon) was 8.8 µM and the TGI (COLO 205 colon) was 22.7 µM.
